What is called IC50 is the concentration that inhibits the measured activity by half.

Where only a bound is given, the exact number is not on record here.

Assay [1] concerns the target T1, AChE (EC3.1.1.7, Sigma product no. C2888) (Electrophorus electricus, UniProt O42275).
T1 construct: purchased Sigma (St. Louis, MO, USA) C2888
The assay is described as follows: AChE inhibition by modified Ellman's method in 96-well microplates. In kind it is biochemical. The following applies: for AChE inhibitory activity in words: qualitative statement. Here is the method:
The isolated lycodine-type alkaloids 1–14 were evaluated for their AChE inhibiting activity by Ellman’s method in 96-well microplates.
AChE (EC3.1.1.7, Sigma product no. C2888), acetylthiocholine iodide (ATCI), 5,5'-dithiobis [2-nitrobenzoic acid] (DTNB) and huperzine A (purity 98%) were purchased from Sigma (St. Louis, MO, USA).
Briefly, 0.1 M sodium phosphate buffer (140 µL, pH = 8.0), sample solution (20 µL) and enzyme solution (15 µL) were mixed and incubated at 4 °C for 20 min. Ten µL of 0.01 M DTNB was added and the reaction was then started by adding 0.075 M ATCI (10 µL). […] Blanks were set up by adding 20 µL buffer solutions instead of 20 µL sample solution. Experiment control was set up by adding 15 µL buffer solutions instead of 15 µL enzyme solution in order to deduct the sample background. All reactions were carried out thrice.
For orientation: DTNB colorimetry detects thiols as they appear.

The next assay deals with AChE. The settings on record: previously reported ref 8, 13, 21; cited from earlier work.

T1 sequence (O42275 24-633): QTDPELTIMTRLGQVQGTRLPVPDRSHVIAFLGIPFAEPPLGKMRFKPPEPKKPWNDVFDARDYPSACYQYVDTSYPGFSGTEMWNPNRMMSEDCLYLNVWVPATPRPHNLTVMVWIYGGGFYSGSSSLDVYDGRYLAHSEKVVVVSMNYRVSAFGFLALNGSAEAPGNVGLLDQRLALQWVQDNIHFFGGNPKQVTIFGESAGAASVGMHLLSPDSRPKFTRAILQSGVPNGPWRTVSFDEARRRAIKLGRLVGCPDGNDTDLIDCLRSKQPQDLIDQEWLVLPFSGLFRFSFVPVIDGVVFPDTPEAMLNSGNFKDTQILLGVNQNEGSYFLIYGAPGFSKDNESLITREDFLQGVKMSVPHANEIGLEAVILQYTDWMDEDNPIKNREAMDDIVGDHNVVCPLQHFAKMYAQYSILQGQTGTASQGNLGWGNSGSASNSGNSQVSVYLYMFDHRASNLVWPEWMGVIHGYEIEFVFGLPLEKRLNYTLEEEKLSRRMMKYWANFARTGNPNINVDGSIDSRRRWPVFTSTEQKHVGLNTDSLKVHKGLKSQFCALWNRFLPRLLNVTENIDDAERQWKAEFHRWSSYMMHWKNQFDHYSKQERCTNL

The compound `C=CC1C2C=C(CO)CC1(NC)c1ccc(=O)[nH]c1C2` (stereo not drawn) [Compound 10, casuarinine E] came in with an IC50 in assay [1] of over 250 µM.
Consider `C=CC1C2C=C(C)CC1(N(C)C)c1ccc(=O)[nH]c1C2` (stereo not drawn) [Compound 5, huperzinine], for which, in assay [1], the “AChE inhibitory activity in words” value is “very weak activity”.
Regarding `CC1=C[C@H]2Cc3[nH]c(=O)ccc3[C@]3(C1)NCCC[C@H]23` [Compound 9, huperzine B], the IC50 in assay [1] is 20.2 ± 1.3 µM; with AChE it was 19.3 µM. For the same compound, in assay [1], the “AChE inhibitory activity in words” value was “significant inhibitory activity”.
For `C=CC1C2C=C(C)CC1(NC)c1ccc(=O)[nH]c1C2` (stereo not drawn) [Compound 7, N-demethylhuperzinine], the IC50 in assay [1] is 1.9 ± 0.2 µM.
`C=C[C@@H]1[C@H]2C=C(CO)C[C@]1(N)c1ccc(=O)[nH]c1C2` [Compound 13, lycoparin C]: in assay [1], the IC50 came to 23.9 ± 2.2 µM and the “AChE inhibitory activity in words” value is “significant inhibitory activity”. In the assay with AChE, the IC50 was 25 µM.

These data come from article PMC6271639, “Lycodine-Type Alkaloids from Lycopodiastrum casuarinoides and Their Acetylcholinesterase Inhibitory Activity” (Molecules, 2014).
